For experiment [1], the target named is T1, Type-1 angiotensin II receptor (Oryctolagus cuniculus) (UniProt P34976).
T1 sequence (whole entry): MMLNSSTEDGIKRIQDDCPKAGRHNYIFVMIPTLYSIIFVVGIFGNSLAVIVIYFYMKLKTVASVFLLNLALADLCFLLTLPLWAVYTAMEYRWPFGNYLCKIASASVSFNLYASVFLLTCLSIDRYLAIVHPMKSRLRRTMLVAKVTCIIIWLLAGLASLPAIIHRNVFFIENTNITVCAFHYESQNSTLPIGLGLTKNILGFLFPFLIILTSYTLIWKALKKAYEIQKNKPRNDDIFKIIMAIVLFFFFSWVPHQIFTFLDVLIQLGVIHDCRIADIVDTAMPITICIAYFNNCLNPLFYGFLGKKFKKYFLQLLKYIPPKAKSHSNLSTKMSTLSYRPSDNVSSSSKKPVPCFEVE
The experiment in a line: In vitro antagonistic activity against Ang II (AT1) receptor was determined in rabbit aorta. The experiment is classed as functional, tissue-based.

Experiment [2] deals with T2, Type-1 angiotensin II receptor B (Rattus norvegicus) (UniProt P29089).
T2 sequence (whole entry): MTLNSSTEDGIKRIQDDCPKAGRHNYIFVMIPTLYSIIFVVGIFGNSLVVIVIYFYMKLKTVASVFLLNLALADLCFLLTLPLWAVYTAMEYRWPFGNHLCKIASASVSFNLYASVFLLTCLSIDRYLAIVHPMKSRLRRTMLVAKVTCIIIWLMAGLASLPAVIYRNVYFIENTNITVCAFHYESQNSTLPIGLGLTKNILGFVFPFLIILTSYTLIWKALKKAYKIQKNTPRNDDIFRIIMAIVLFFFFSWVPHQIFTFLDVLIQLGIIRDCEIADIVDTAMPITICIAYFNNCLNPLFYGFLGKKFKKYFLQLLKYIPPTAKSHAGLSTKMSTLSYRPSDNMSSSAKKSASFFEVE
Put plainly: In vivo pressor response to Ang II (AT1) receptor in pithed rats at an oral dose of 10 mg/kg; Not active. It is filed as functional, organism-based. On the set-up: dose 10 mg/kg.

For experiment [3], the target named is T2, Type-1 angiotensin II receptor B (Rattus norvegicus). The experiment in a line: In vivo pressor response to Ang II (AT1) receptor in pithed rats at an oral dose of 10 mg/kg. The experiment is classed as functional, organism-based. On the set-up: dose 10 mg/kg.

Active and inactive are the calls of the source. The calls are words filed in the database; no cut-off is given here.

The compound `CCCCCC[C@H](C(=O)N1C[C@@H](Oc2ccc(OC(C)(C)C)cc2)C[C@H]1C(=O)O)n1cnc(NC(=O)c2ccccc2S(=O)(=O)O)c1` displayed a Kb in experiment [1] of 5.2 nM.

Regarding `CCCCCC[C@H](C(=O)N1C[C@@H](Oc2ccccc2CC(=O)O)C[C@H]1C(=O)O)n1cnc(NC(=O)c2ccccc2S(=O)(=O)O)c1`, the Kb entry in experiment [2] is “inactive”. The Kb in experiment [1] was 501 nM.

For `CCCCCC[C@H](C(=O)N1C[C@@H](Oc2ccc(CP(=O)(O)O)cc2)C[C@H]1C(=O)O)n1cnc(NC(=O)c2ccccc2S(=O)(=O)O)c1`, the values for the Kb in experiment [1] and in experiment [3] were 0.9 nM and 1.8 mg/kg, respectively.

For the compound `CCCCCC[C@H](C(=O)N1C[C@@H](Oc2cccnc2)C[C@H]1C(=O)O)n1cnc(NC(=O)c2ccccc2S(=O)(=O)O)c1`, the Kb in experiment [1] turned out to be 148 nM.

With `CCCCCC[C@H](C(=O)N1C[C@@H](O)C[C@H]1C(=O)O)n1cnc(NC(=O)c2ccccc2S(=O)(=O)O)c1`, the Kb in experiment [1] worked out at 25.8 nM.

On to `CCCCCC[C@H](C(=O)N1C[C@@H](Oc2ccc(C(=O)O)cc2)C[C@H]1C(=O)O)n1cnc(NC(=O)c2ccccc2S(=O)(=O)O)c1`, for which the Kb entry in experiment [2] is “inactive”. The compound also yielded a Kb in experiment [1] of 1.1 nM.

Consider `CCCCCC[C@H](C(=O)N1C[C@@H](Oc2ccccc2)C[C@H]1C(=O)O)n1cnc(NC(=O)c2ccccc2S(=O)(=O)O)c1`, for which the Kb in experiment [1] was 0.8 nM.

In experiment [1], `CCCCCCC(C(=O)O)n1cnc(NC(=O)c2ccccc2)c1` (centres undefined) gave a Kb of 12500 nM.

Turning to `CCCCCC[C@H](C(=O)N1C[C@@H](Oc2ccc(C)cc2)C[C@H]1C(=O)O)n1cnc(NC(=O)c2ccccc2S(=O)(=O)O)c1`, the Kb in experiment [1] turned out to be 1.09 nM.

Turning to `CCCCCC[C@H](C(=O)N1C[C@@H](Oc2ccc(C(C)(C)C)cc2)C[C@H]1C(=O)O)n1cnc(NC(=O)c2ccccc2S(=O)(=O)O)c1`, the Kb in experiment [1] amounted to 126 nM.

For the compound `CCCCCC[C@H](C(=O)N1C[C@@H](Oc2ccc(C(F)(F)F)cc2)C[C@H]1C(=O)O)n1cnc(NC(=O)c2ccccc2S(=O)(=O)O)c1`, the Kb in experiment [1] is 34.7 nM.

`CCCCCC[C@H](C(=O)N1C[C@@H](Oc2ccc3sccc3c2)C[C@H]1C(=O)O)n1cnc(NC(=O)c2ccccc2S(=O)(=O)O)c1` yielded a Kb in experiment [1] of 3.6 nM.

In turn, `CCCCCC[C@H](C(=O)N1C[C@@H](Oc2ccc3c(c2)OCO3)C[C@H]1C(=O)O)n1cnc(NC(=O)c2ccccc2S(=O)(=O)O)c1` gave a Kb in experiment [1] of 0.92 nM.

`CCCCCC[C@H](C(=O)N1C[C@@H](Oc2ccc3occc3c2)C[C@H]1C(=O)O)n1cnc(NC(=O)c2ccccc2S(=O)(=O)O)c1` returned a Kb in experiment [1] of 0.63 nM.

`CCCCCC[C@H](C(=O)N1C[C@@H](Oc2cccc3cnccc23)C[C@H]1C(=O)O)n1cnc(NC(=O)c2ccccc2S(=O)(=O)O)c1` returned a Kb in experiment [1] of 3.3 nM.

Compound `CCCCCCC(C(=O)O)n1cnc(NC(=O)c2ccccc2C(=O)O)c1` (centres undefined) registered a Kb in experiment [1] of 684 nM.

In turn, `CCCCCC[C@@H](C(=O)N1C[C@@H](Oc2ccccc2)C[C@H]1C(=O)O)n1cnc(NC(=O)c2ccccc2S(=O)(=O)O)c1` registered a Kb in experiment [1] of 3.2 nM.

`CCCCCCC(C(=O)O)n1cnc(NC(=O)c2ccccc2S(=O)(=O)O)c1` (centres undefined) showed a Kb in experiment [1] of 81.7 nM.

Compound `CCCCCC[C@H](C(=O)N1C[C@@H](Oc2ccc(OC(C)C)cc2)C[C@H]1C(=O)O)n1cnc(NC(=O)c2ccccc2S(=O)(=O)O)c1` showed a Kb in experiment [1] of 4.1 nM.

Regarding `CCCCCC[C@H](C(=O)N1C[C@@H](Oc2ccno2)C[C@H]1C(=O)O)n1cnc(NC(=O)c2ccccc2S(=O)(=O)O)c1`, the Kb in experiment [1] turned out to be 94.6 nM.

For `CCCCCC[C@@H](C(=O)N1CCC[C@H]1C(=O)O)n1cnc(NC(=O)c2ccccc2S(=O)(=O)O)c1`, the Kb in experiment [1] is 461 nM.

`CCCCCC[C@H](C(=O)N1C[C@@H](Oc2ccc(C(C)C)cc2)C[C@H]1C(=O)O)n1cnc(NC(=O)c2ccccc2S(=O)(=O)O)c1` had a Kb in experiment [1] of 25.1 nM.

In the case of `CCCCCC[C@H](C(=O)N1C[C@@H](Oc2cccc(CC(=O)O)c2)C[C@H]1C(=O)O)n1cnc(NC(=O)c2ccccc2S(=O)(=O)O)c1`, the Kb in experiment [1] turned out to be 15.8 nM; in experiment [3], 10.6 mg/kg.

As to `CCCCCC[C@H](C(=O)N1C[C@@H](Oc2ccc3ccccc3c2)C[C@H]1C(=O)O)n1cnc(NC(=O)c2ccccc2S(=O)(=O)O)c1`, in experiment [1], the Kb is 4.1 nM.

For `CCCCCC[C@H](C(=O)N1C[C@@H](Oc2ccc(CC3N=NN=N3)cc2)C[C@H]1C(=O)O)n1cnc(NC(=O)c2ccccc2S(=O)(=O)O)c1`, the Kb result in experiment [2] is “inactive”. The same compound returned a Kb in experiment [1] of 0.6 nM.

For the compound `CCCCCC[C@H](C(=O)N1C[C@@H](Oc2ccc(CCC(=O)O)cc2)C[C@H]1C(=O)O)n1cnc(NC(=O)c2ccccc2S(=O)(=O)O)c1`, the Kb entry in experiment [2] was “inactive”. Besides, in experiment [1], the Kb was 0.6 nM.

With `CCCCCC[C@H](C(=O)N1C[C@@H](Oc2ccc(CCP(=O)(O)O)cc2)C[C@H]1C(=O)O)n1cnc(NC(=O)c2ccccc2S(=O)(=O)O)c1`, the Kb was 0.4 nM in experiment [1] and 8.3 mg/kg in experiment [3].

For `CCCCCC[C@H](C(=O)N1C[C@@H](Oc2cccc3ccccc23)C[C@H]1C(=O)O)n1cnc(NC(=O)c2ccccc2S(=O)(=O)O)c1`, in experiment [1], the Kb is 4040 nM.

For the compound `CCCCCC[C@H](C(=O)N1C[C@@H](Oc2ccc(C(C)(C)C(=O)O)cc2)C[C@H]1C(=O)O)n1cnc(NC(=O)c2ccccc2S(=O)(=O)O)c1`, the values for the Kb in experiment [1] and in experiment [3] were 0.6 nM and 6.5 mg/kg, respectively.

`CCCCCC[C@H](C(=O)N1C[C@@H](Oc2ccc(F)cc2)C[C@H]1C(=O)O)n1cnc(NC(=O)c2ccccc2S(=O)(=O)O)c1` displayed a Kb in experiment [1] of 3 nM.

For `CCCCCC[C@H](C(=O)N1C[C@@H](Oc2ccc(CC(=O)O)cc2)C[C@H]1C(=O)O)n1cnc(NC(=O)c2ccccc2S(=O)(=O)O)c1`, the Kb in experiment [1] is 0.27 nM; in experiment [3], 2.8 mg/kg.

With `CCCCCC[C@H](C(=O)N1C[C@@H](Oc2ccc(-c3ccccc3)cc2)C[C@H]1C(=O)O)n1cnc(NC(=O)c2ccccc2S(=O)(=O)O)c1`, in experiment [1], the Kb was determined as 10 nM.

In experiment [1], `CCCCCC[C@H](C(=O)N1C[C@@H](Oc2cccc(OC)c2)C[C@H]1C(=O)O)n1cnc(NC(=O)c2ccccc2S(=O)(=O)O)c1` gave a Kb of 11.6 nM.

In experiment [1], `CCCCCCC(C(=O)O)n1cnc(NC(=O)c2ccccc2-c2nn[nH]n2)c1` (centres undefined) showed a Kb of 159 nM.

Take `CCCCCC[C@H](C(=O)N1C[C@@H](Oc2ccccc2OC)C[C@H]1C(=O)O)n1cnc(NC(=O)c2ccccc2S(=O)(=O)O)c1`: in experiment [1], the Kb is over 30 nM.

In experiment [1], `CCCCCC[C@H](C(=O)N1C[C@@H](Oc2ccc(OC)cc2)C[C@H]1C(=O)O)n1cnc(NC(=O)c2ccccc2S(=O)(=O)O)c1` came in with a Kb of 0.44 nM.

The compound `CCCCCC[C@H](C(=O)N1C[C@@H](Oc2ccc(OC)c(OC)c2)C[C@H]1C(=O)O)n1cnc(NC(=O)c2ccccc2S(=O)(=O)O)c1` gave a Kb in experiment [1] of 15.8 nM.

Take `CCCCCC[C@H](C(=O)N1CCC[C@H]1C(=O)O)n1cnc(NC(=O)c2ccccc2S(=O)(=O)O)c1`: the Kb in experiment [1] was found to be 50.9 nM.

With `CCCCCCC(C(=O)O)n1cnc(NC(=O)c2cccc(O)c2C(=O)O)c1` (centres undefined), in experiment [1], the Kb worked out at 124 nM.

For `CCCCC(C(=O)O)n1cnc(C(=O)Nc2ccccc2)c1` (centres undefined), the Kb in experiment [1] came out at 71.5 nM.

The record behind these values is ChEMBL document CHEMBL1127307, “Structural evolution and pharmacology of a novel series of triacid angiotensin II receptor antagonists” (J Med Chem, 1994).
